The subject of data set [1] is Lewis rats inoculated with peptidoglycan-polysaccharide (PG-PS). The data set can be described thus: Histopathological examination of stifle joints (synovial inflammation). It counts as in vivo. The settings on record: scale of 1 (no inflammation) to 3, necropsy Day 30. How it is done: (§1) The ability of a dispersion comprising microparticles of an analgesic agent according to the invention to mediate pain and inflammation was investigated in an animal model. Lewis rats were inoculated with peptidoglycan-polysaccharide (PG-PS) (5.4 mg/mL, Lee Laboratories) by intraarticular injection in the right knee two weeks prior to the start of the examination period, i.e., on Day −14. PG-PS induces inflammation highly representative of that produced by certain drugs and is also used in models of arthritis. On Day 0, animals were dosed via single intraarticular injection of 70 μL saline, daily oral celecoxib 10 mg/kg, or single intraarticular injection of 70 μL (8.5 mg) ropivacaine suspension. Two hours post-dosing, the inflammatory response was activated by a tail vein injection of 0.5 mL of 0.4 mg/mL PG-PS. […] The animals in the saline and ropivacaine groups were re-dosed on Day 23, after the initial inflammatory response subsided, and the inflammatory response was reactivated on Day 28 by tail vein injection. The oral celecoxib was dosed 10 mg/kg daily throughout the study except for Day 29, when the dose was increased to 50 mg/kg. The test groups are described in Table 4:
(§2) Drug quantitation was performed on blood and plasma samples to assess the pharmacokinetic profiles of the drugs and the levels to which the drugs were present systemically. Knee joint tissues were also assayed for drug concentration in order to determine if any residual drug was present in the joints at the conclusion of the study. In addition, histological analysis and cytokine analysis were performed on knee joint tissues collected during necropsy on Day 30. […] Quantitation of celecoxib was performed on plasma and whole blood samples collected from the rats in Groups 2 to 5 at timepoints of 1, 6, 12, and 24 hours, and at 7, 14, 21, and 29 days. […] Celecoxib levels in Group 2 (saline control) were primarily below the quantitation limit, as expected. Celecoxib was also detected in the knee tissues from Groups 3, 4, and 5, with the Group 3 levels being the highest, followed by Group 4, and finally Group 5. […] Ropivacaine was undetected in the rat knee tissues.

For data set [2] the following is noted: slow release depot dosage form; cited from earlier work.
For data set [3] the following is noted: relative, bupivacaine and ropivacaine; cited from earlier work.
A short description of data set [4]: Drug quantitation in blood, plasma and knee joint tissues. It counts as in vivo, Lewis rats. Particulars: for drug in knee tissues: end of study. How it is done: as §1, §2

Regarding `Cc1ccc(-c2cc(C(F)(F)F)nn2-c2ccc(S(N)(=O)=O)cc2)cc1` [Oral Celecoxib], in data set [1], the “synovial inflammation score, Animal 1” value turned out to be 3; the “synovial inflammation score, Animal 2” value was 3; the “synovial inflammation score, Animal 3” value turned out to be 3; the “synovial inflammation score, Animal 4” value stood at 2.
On to `CCCCN1CCCCC1C(=O)Nc1c(C)cccc1C` (centres unmarked) [bupivacaine], for which, in data set [2], the “minimum tissue drug level found to alleviate pain” value is 30 µg/mL. Further, in data set [3], the equipotent concentration is 1.
Regarding `Cc1ccc(-c2cc(C(F)(F)F)nn2-c2ccc(S(N)(=O)=O)cc2)cc1` [celecoxib], the “drug in knee tissues” value is recorded as “highest” in data set [4] (Group 3, 10% suspension intraarticular); “detected” in data set [4] (Group 4, 5% suspension intraarticular); “detected” in data set [4] (Group 5, oral 10 mg/kg/day). Moreover, the “interval up to which measurable levels were detected in the blood” value was no more than 14 days in data set [4] (Group 3, intraarticular 70 μL 10% suspension) and no more than 14 days in data set [4] (Group 4, intraarticular 70 μL 5% suspension). For the same compound, the “blood levels compared to Group 3” value in data set [4] (Group 4 (5% suspension) vs Group 3 (10% suspension)) is “systematically lower”. Moreover, the “blood level on Day 29” value in data set [4] (Group 4, intraarticular 70 μL 5% suspension, re-dosed Day 23) was “measurable levels”. The “persistence of systemic levels in blood” value in data set [4] (after intraarticular injection, rat blood) is “approximately 2 weeks”.

These data come from patent US20150024031A1, “Methods And Compositions For Reducing Pain, Inflammation, And/Or Immunological Reactions Associated With Parenterally Administering A Primary Therapeutic Agent” (BAXTER INTERNATIONAL INC., priority 2013, published 2015).
